Results: patent US6204294A, “IL-8 receptor antagonists” (SmithKline Beecham Corporation, priority 1999, dated 2001)

Test system: recombinant human IL-8 type β receptor (IL-8Rβ, Type II, permissive receptor)
Assay: Receptor binding assay, permissive model (IL-8b), [125I]IL-8 on CHO membranes
Conditions: recombinant IL-8Rβ CHO membranes; compound without an ionizable proton in the 2-position
Excerpt: [^125 I]IL-8 (human recombinant) was obtained from Amersham Corp., Arlington Heights, Ill., with specific activity 2000 Ci/mmol. Gro-α was obtained from NEN- New England Nuclear. All other chemicals were of analytical grade. High levels of recombinant human IL-8 type α and β receptors were individually expressed in Chinese hamster ovary cells as described previously (Holmes, et al., Science, 1991, 253, 1278). The Chinese hamster ovary membranes were homogenized according to a previously described protocol (Haour, et al., J Biol Chem., 249 pp 2195-2205 (1974)). Except that the homogenization buffer was changed to 10mM Tris-HCL, 1mM MgS04, 0.5mM EDTA (ethylene-diaminetetra-acetic acid), 1mMPMSF (α-toluenesulphonyl fluoride), 0.5 mg/L Leupeptin, pH 7.5. Membrane protein concentration was determined using Pierce Co. micro-assay kit using bovine serum albumin as a standard. All assays were performed in a 96-well micro plate format. Each reaction mixture contained ^125 I IL-8 (0.25 nM) or ^125 I Gro-α and 0.5 μg/mL of IL-8Rα or 1.0 μg/mL of IL-8Rβ membranes in 20 mM Bis-Trispropane and 0.4 mM Tris HCl buffers, pH 8.0, containing 1.2 mM MgSO4, 0.1 mM EDTA, 25 mM NaCl and 0.03% CHAPS. […] The filter was then dried and counted on the Betaplate liquid scintillation counter. […]

SMILES: C=CCOc1cc(C#N)ccc1NC(=NC#N)Nc1ccccc1Br [N-(2-Allyloxy-4-cyano-phenyl)-N'-(2-bromophenyl)-N"-cyanoguanidine]
- activity in the permissive model (IL-8b) IL-8 receptor inhibition assay, result in words: inactive
